Data set [1] is described as follows: Aqueous solubility of compound. It is filed as physicochemical.
Data set [2] has as its target Ubiquitin carboxyl-terminal hydrolase 9X (Homo sapiens, UniProt Q93008). The data set can be described thus: Inhibition of USP9x (unknown origin).
The target of data set [3] is T1, Ubiquitin carboxyl-terminal hydrolase 2 (Homo sapiens, UniProt O75604).
T1 sequence (O75604 whole entry): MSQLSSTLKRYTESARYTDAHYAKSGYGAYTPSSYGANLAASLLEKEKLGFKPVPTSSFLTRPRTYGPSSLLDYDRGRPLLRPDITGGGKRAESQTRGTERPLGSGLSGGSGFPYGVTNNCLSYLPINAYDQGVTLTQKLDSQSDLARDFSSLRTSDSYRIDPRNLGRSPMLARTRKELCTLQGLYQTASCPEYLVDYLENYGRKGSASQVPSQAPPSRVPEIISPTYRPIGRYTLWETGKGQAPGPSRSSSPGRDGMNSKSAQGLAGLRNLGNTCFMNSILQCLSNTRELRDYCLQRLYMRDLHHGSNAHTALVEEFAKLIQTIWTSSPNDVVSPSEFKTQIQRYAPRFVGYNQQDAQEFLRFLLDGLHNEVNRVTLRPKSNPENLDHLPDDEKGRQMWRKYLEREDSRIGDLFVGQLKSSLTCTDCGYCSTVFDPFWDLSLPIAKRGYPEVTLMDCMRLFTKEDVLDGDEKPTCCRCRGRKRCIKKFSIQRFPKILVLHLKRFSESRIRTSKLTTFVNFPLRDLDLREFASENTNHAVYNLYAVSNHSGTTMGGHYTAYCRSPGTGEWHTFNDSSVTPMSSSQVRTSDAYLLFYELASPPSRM
In words: Inhibition of human USP2 using Di-Ub IQF as substrate incubated for 15 mins by K63-2 assay.

Data set [4] concerns the target T2, Ubiquitin carboxyl-terminal hydrolase 8 (Homo sapiens, UniProt P40818).
T2 sequence (P40818 whole entry): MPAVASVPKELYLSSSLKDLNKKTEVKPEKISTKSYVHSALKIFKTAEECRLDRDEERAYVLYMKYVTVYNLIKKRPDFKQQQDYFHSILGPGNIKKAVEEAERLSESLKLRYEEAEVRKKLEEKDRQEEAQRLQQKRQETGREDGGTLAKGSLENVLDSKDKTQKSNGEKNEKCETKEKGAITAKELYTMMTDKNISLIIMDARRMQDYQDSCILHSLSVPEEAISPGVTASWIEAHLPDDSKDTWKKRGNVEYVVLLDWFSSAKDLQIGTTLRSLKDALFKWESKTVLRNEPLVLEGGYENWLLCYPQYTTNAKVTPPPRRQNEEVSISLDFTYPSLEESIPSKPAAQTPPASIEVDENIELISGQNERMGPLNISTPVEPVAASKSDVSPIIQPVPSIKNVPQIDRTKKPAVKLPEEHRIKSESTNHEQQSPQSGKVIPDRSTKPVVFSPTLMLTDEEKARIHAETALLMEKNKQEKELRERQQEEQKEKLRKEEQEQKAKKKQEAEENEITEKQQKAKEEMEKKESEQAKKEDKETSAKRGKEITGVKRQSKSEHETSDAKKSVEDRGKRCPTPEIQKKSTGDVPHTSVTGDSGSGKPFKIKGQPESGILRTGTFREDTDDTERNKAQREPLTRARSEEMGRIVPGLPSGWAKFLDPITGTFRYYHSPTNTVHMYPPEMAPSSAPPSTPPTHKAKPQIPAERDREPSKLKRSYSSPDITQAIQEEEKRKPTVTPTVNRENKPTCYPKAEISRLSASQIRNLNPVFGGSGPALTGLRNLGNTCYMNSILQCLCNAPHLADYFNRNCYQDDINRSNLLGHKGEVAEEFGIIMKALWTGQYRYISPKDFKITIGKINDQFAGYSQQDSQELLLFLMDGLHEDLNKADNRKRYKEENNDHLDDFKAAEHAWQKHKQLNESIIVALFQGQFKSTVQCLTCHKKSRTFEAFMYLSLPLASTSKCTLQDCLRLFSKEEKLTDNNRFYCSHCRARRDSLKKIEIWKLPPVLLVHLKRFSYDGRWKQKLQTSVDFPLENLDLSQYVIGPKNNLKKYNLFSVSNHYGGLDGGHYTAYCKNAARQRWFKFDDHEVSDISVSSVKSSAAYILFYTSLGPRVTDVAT
In words: Inhibition of human USP8 using Di-Ub IQF as substrate incubated for 15 mins by K63-2 assay.

The test system of a further data set is HCT-116. In words: Anticancer activity against human HCT-116 cells assessed as cell growth inhibition incubated for 72 hrs by CellTiter Glo assay. To be noted: HCT-116, 72 h. It is filed as functional, cell-based.
Data set [5] deals with Ubiquitin carboxyl-terminal hydrolase 7 (Homo sapiens, UniProt Q93009). The data set can be described thus: Inhibition of human his tagged USP7 (208 to 560 residues) catalytic domain expressed in insect sf9 cells using monoubiquitinated ubiquitin-rhodamine as substrate incubated for 1 hrs by fluorescence based assay.
Another data set has as its system MM1.S. The data set can be described thus: Anticancer activity against human MM1.S cells assessed as cell growth inhibition incubated for 120 hrs by CellTiter-Glo assay. It is filed as functional, cell-based.
The target of data set [6] is T3, Ubiquitin carboxyl-terminal hydrolase 14 (Homo sapiens, UniProt P54578). The data set can be described thus: Inhibition of human USP14 using Ub-PA as substrate assessed as deubiquitination level incubated for 1 hr by SDS-PAGE assay.
Data set [7] concerns the target T4, Ubiquitin carboxyl-terminal hydrolase 5 (Homo sapiens, UniProt P45974).
T4 sequence (P45974 whole entry): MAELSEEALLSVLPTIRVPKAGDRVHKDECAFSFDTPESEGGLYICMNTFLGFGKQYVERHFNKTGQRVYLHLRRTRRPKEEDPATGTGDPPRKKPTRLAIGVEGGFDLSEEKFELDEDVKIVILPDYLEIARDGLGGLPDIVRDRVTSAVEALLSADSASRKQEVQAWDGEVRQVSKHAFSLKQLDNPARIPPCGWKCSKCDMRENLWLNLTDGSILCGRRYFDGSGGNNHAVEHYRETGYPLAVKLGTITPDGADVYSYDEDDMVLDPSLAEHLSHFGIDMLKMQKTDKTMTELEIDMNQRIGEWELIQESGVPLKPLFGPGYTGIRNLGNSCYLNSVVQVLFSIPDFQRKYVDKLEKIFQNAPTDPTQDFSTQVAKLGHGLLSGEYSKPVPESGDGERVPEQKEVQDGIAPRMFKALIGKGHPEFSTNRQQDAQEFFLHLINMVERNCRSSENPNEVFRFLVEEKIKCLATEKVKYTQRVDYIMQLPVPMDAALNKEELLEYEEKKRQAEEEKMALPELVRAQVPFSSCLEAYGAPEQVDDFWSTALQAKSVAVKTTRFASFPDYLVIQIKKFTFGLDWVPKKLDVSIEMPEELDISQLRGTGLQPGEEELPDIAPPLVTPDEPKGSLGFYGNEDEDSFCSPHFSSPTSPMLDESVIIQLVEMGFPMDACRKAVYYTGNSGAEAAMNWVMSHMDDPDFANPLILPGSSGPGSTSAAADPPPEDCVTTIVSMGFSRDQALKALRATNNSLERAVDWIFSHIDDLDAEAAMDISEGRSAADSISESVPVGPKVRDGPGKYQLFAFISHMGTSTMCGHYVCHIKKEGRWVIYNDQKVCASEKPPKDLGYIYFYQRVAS
The data set can be described thus: Inhibition of human USP5 using Ub-PA as substrate assessed as deubiquitination level incubated for 1 hr by SDS-PAGE assay.

In data set [8] the target is T3, Ubiquitin carboxyl-terminal hydrolase 14. The data set can be described thus: Inhibition of human his tagged USP14 by SPR analysis.
For data set [9], the target named is T5, Ubiquitin carboxyl-terminal hydrolase isozyme L5 (Homo sapiens, UniProt Q9Y5K5).
T5 sequence (Q9Y5K5 whole entry): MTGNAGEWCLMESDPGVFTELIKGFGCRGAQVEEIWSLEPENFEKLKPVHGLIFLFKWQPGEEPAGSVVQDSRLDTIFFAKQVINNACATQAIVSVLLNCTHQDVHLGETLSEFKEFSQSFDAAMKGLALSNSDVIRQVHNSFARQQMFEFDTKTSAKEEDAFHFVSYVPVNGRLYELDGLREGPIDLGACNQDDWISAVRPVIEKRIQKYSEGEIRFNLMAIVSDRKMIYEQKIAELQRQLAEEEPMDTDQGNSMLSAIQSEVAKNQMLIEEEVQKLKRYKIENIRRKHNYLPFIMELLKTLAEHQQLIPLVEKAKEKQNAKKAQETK
The data set can be described thus: Inhibition of human his tagged UCHL5 assessed as dissociation constant by SPR analysis.

Data set [10] has as its target T3, Ubiquitin carboxyl-terminal hydrolase 14. The data set can be described thus: Inhibition of human his tagged USP14 assessed as dissociation constant by SPR analysis.
For data set [11], the target named is Ubiquitin carboxyl-terminal hydrolase 24 (Homo sapiens, UniProt Q9UPU5). In words: Inhibition of USP24 (unknown origin).

Each structure is given as a SMILES string. ≈ marks a conversion by molar mass, not a printed value.

T3 sequence (P54578 whole entry): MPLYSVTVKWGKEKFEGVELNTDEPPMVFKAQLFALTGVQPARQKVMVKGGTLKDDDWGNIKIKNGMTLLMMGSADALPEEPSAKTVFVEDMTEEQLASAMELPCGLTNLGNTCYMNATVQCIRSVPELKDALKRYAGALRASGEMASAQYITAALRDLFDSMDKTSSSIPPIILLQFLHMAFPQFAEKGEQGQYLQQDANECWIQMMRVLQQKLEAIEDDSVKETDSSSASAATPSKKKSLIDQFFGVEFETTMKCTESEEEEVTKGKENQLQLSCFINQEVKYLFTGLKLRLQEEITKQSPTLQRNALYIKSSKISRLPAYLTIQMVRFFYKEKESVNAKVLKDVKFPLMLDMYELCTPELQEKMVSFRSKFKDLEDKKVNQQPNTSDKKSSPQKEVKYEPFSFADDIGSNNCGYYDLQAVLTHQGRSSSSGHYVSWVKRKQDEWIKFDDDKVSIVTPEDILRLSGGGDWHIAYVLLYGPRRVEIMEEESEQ
Chain of Ubiquitin carboxyl-terminal hydrolase 7 (Q93009 whole entry, the tested form may be a part): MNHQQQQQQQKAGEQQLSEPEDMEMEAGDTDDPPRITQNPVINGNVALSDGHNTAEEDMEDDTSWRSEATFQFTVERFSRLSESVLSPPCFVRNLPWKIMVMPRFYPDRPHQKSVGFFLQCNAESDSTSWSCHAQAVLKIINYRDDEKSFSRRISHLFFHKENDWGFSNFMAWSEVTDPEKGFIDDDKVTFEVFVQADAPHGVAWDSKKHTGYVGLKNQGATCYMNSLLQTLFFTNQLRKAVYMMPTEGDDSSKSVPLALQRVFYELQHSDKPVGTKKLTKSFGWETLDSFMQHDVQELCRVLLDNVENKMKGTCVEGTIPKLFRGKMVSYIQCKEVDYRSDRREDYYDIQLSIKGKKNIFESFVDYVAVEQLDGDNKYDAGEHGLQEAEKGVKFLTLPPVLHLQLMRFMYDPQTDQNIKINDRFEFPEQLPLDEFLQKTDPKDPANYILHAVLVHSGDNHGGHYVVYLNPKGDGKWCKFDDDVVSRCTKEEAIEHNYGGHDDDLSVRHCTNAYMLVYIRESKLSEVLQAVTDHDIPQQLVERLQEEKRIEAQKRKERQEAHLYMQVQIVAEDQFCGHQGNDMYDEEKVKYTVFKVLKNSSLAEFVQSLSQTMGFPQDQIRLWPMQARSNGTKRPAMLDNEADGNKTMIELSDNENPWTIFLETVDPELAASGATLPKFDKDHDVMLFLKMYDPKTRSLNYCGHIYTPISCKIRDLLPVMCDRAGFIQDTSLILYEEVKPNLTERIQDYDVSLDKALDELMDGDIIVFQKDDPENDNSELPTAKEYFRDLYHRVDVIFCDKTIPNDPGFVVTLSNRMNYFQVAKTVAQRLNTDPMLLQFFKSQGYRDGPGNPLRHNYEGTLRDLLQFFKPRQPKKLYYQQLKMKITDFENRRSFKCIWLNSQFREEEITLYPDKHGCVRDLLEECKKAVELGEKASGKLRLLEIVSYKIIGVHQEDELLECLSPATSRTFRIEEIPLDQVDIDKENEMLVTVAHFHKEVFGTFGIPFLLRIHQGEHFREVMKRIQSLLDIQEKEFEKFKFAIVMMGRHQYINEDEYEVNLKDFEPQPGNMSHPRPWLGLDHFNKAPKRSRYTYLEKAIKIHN
Chain of Ubiquitin carboxyl-terminal hydrolase 24 (Q9UPU5 whole entry): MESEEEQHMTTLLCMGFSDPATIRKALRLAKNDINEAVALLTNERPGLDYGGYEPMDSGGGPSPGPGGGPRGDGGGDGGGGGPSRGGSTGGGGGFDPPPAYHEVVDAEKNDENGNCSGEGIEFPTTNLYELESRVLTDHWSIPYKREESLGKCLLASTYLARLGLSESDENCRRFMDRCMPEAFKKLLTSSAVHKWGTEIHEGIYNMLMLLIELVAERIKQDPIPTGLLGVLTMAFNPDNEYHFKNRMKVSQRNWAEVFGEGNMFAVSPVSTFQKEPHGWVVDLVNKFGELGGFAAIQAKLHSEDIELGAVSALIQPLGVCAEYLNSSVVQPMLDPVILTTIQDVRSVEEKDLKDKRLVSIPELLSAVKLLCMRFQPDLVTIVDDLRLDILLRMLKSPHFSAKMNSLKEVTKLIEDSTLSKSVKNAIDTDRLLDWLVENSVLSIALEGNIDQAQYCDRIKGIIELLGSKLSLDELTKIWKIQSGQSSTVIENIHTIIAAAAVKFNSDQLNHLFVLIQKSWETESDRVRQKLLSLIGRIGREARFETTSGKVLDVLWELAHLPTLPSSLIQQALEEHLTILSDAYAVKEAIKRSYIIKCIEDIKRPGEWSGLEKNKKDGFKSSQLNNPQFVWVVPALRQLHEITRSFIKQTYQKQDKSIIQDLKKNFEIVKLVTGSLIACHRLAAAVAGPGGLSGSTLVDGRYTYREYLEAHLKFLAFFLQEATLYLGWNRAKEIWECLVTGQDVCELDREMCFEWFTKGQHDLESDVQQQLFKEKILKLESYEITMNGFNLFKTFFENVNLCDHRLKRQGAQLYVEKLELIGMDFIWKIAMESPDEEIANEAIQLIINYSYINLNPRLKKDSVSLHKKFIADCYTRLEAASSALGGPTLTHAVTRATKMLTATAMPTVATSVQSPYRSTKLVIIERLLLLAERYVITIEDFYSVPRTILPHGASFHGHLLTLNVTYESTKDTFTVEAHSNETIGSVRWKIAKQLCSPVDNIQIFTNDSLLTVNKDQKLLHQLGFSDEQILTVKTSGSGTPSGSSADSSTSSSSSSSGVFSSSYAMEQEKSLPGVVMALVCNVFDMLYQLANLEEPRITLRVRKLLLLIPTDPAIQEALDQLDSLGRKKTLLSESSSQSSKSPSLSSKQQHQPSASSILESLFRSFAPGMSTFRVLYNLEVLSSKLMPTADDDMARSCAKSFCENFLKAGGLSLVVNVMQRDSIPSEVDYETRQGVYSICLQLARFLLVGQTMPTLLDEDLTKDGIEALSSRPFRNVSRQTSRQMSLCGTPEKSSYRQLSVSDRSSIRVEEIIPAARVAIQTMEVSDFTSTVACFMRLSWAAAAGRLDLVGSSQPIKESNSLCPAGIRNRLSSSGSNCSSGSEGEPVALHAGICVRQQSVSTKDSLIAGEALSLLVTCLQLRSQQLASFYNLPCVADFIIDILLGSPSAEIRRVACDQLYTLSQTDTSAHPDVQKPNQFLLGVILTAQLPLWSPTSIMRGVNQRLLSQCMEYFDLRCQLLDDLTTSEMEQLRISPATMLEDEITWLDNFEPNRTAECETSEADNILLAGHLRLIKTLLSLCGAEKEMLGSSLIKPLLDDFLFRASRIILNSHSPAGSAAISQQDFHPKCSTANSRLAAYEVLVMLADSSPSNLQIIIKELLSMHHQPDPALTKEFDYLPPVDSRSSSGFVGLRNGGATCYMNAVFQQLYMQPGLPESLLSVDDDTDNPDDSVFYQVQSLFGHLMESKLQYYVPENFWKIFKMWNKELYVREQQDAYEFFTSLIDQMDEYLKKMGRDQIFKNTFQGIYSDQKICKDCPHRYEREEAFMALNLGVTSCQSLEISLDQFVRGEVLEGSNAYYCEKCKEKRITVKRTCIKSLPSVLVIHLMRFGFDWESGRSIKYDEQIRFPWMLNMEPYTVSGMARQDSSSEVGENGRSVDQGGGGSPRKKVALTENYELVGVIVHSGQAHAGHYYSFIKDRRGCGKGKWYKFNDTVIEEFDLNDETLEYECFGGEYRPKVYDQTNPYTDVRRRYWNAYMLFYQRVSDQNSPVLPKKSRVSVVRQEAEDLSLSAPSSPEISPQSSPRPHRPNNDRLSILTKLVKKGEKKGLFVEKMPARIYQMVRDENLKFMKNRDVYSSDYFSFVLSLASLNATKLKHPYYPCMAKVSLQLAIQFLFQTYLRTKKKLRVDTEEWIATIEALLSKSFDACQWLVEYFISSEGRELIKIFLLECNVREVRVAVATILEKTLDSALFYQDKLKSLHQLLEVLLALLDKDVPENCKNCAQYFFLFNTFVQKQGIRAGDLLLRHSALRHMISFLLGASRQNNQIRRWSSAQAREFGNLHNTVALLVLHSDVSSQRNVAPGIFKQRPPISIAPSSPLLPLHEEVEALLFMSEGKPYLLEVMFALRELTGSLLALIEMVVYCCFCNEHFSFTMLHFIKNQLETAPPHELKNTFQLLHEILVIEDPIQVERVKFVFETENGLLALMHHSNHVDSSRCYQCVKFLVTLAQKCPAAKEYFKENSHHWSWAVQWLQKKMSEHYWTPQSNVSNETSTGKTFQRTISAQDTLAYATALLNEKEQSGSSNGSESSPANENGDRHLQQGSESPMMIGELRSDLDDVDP

For `CCC[C@H](NC(=O)/C(C#N)=C/c1cccc(Br)n1)c1ccccc1`, the concentration in solution in data set [1] (solubility) came to 2.3 µM (≈ 0.884 µg/mL). The half-maximal inhibitory concentration (IC50) in data set [2] turned out to be 2500 nM.

For `Cc1ccc(S(=O)(=O)Nc2cc(C(F)(F)F)ccc2C(=O)Nc2nc(-c3ccccc3)cs2)cc1`, the values for the IC50 in [3] and in [4] were 1100 nM and 950 nM, respectively. Also, the concentration for a half-maximal effect (EC50) in the data set with HCT-116 is 3600 nM.

Consider `O=C(C[C@@H](C(F)F)n1ccc(F)n1)N1CCC(O)(Cn2cnc3c(cnn3-c3ccc(F)cc3)c2=O)CC1`, for which the IC50 in data set [5] amounted to 69 nM; in the data set on MM1.S, 33 nM.

For the compound `Cc1cc(C(=O)CN2CCCCC2)c(C)n1-c1ccc(F)cc1`, the IC50 in data set [6] turned out to be 680 nM; in data set [7] it was 29100 nM.

In turn, `C=CC(=O)N1CC/C(=C\c2ccc(F)c([N+](=O)[O-])c2)C(=O)/C(=C/c2ccc(F)c([N+](=O)[O-])c2)C1` displayed an IC5 in data set [8] of 10 µM. In addition, the dissociation constant Kd was 1500 nM in data set [9] and 14000 nM in data set [10].

`CCCC(NC(=O)/C(C#N)=C/c1nc(Cl)ccc1Cl)c1ccc(OCCN2CCOCC2)cc1` (stereo not drawn) showed an IC50 in data set [11] of 2500 nM.
